Data from the supplement of paper PMC10307832.

Legend:
Experiment in all cases: relative viability (nuclei count vs DMSO), 5 days (fraction); higher = more cells survive
[1] = compound: C1=CC2=NC=CN=C2C=C1/C=C/3\C(=O)NC(=O)S3 + COc1cccc2cc(-c3nc([C@H]4CC[C@H](C(=O)O)CC4)n4ncnc(N)c34)[nH]c12 [OSI-027] (partner 0.5 µM)
Method in brief: (§1)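 Five library-drug doses in √10 steps were combined with a fixed anchor-drug dose, or a single drug was given alone, by pin tool to lung cancer cell lines in 1536-well plates the day after seeding. Nuclei were stained and counted after 5 days. Relative viability is the nuclei count in treated wells over that in vehicle wells, taken as the median of duplicate plates.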

BGJ398 + Luminespib = compound: CCN1CCN(c2ccc(Nc3cc(N(C)C(=O)Nc4c(Cl)c(OC)cc(OC)c4Cl)ncn3)cc2)CC1 [BGJ398] + CCNC(=O)c1noc(-c2cc(C(C)C)c(O)cc2O)c1-c1ccc(CN2CCOCC2)cc1 [Luminespib] (partner 0.01 µM)
Method in brief: as §1

BGJ398 + Lapatinib = compound: CCN1CCN(c2ccc(Nc3cc(N(C)C(=O)Nc4c(Cl)c(OC)cc(OC)c4Cl)ncn3)cc2)CC1 [BGJ398] + CS(=O)(=O)CCNCc1ccc(-c2ccc3ncnc(Nc4ccc(OCc5cccc(F)c5)c(Cl)c4)c3c2)o1 [Lapatinib] (partner 2 µM)
Method in brief: as §1

BGJ398 + AZD7762 = compound: CCN1CCN(c2ccc(Nc3cc(N(C)C(=O)Nc4c(Cl)c(OC)cc(OC)c4Cl)ncn3)cc2)CC1 [BGJ398] + NC(=O)Nc1cc(-c2cccc(F)c2)sc1C(=O)N[C@H]1CCCNC1 [AZD7762] (partner 0.2 µM)
Method in brief: as §1

Row | Cell Line | relative viability ([1]; first compound 0.02 µM) | relative viability ([1]; first compound 0.06325 µM) | relative viability ([1]; first compound 0.2 µM) | relative viability ([1]; first compound 0.6325 µM) | relative viability ([1]; first compound 2 µM) | relative viability (BGJ398 + Luminespib; first compound 0.01 µM) | relative viability (BGJ398 + Luminespib; first compound 0.03162 µM) | relative viability (BGJ398 + Luminespib; first compound 0.1 µM) | relative viability (BGJ398 + Luminespib; first compound 0.3162 µM) | relative viability (BGJ398 + Luminespib; first compound 1 µM) | relative viability (BGJ398 + Lapatinib; first compound 0.01 µM) | relative viability (BGJ398 + Lapatinib; first compound 0.03162 µM) | relative viability (BGJ398 + Lapatinib; first compound 0.1 µM) | relative viability (BGJ398 + Lapatinib; first compound 0.3162 µM) | relative viability (BGJ398 + Lapatinib; first compound 1 µM) | relative viability (BGJ398 + AZD7762; first compound 0.01 µM) | relative viability (BGJ398 + AZD7762; first compound 0.03162 µM) | relative viability (BGJ398 + AZD7762; first compound 0.1 µM) | relative viability (BGJ398 + AZD7762; first compound 0.3162 µM) | relative viability (BGJ398 + AZD7762; first compound 1 µM)
1 | LC-2-ad | 0.893 | 0.752 | 0.807 | 0.757 | 0.454 | 0.958 | 1.05 | 0.978 | 1.04 | 1.07 | 0.937 | 1.02 | 1 | 0.978 | 0.912 | 0.886 | 0.802 | 0.852 | 0.893 | 0.957
2 | LCLC-97TM1 | 0.556 | 0.522 | 0.436 | 0.461 | 0.145 | 0.703 | 0.859 | 0.857 | 0.823 | 0.797 | 0.525 | 0.745 | 0.901 | 0.979 | 0.868 | 0.251 | 0.217 | 0.225 | 0.208 | 0.249
3 | LK-2 | 0.225 | 0.23 | 0.201 | 0.184 | 0.147 | 0.18 | 0.16 | 0.169 | 0.177 | 0.172 | 0.887 | 0.754 | 0.488 | 0.352 | 0.26 | 0.296 | 0.329 | 0.16 | 0.165 | 0.13
4 | LOU-NH91 | 0.726 | 0.767 | 0.673 | 0.681 | 0.464 | 0.34 | – | 0.327 | 0.312 | 0.301 | 0.733 | 0.771 | 0.731 | 0.727 | 0.688 | 0.753 | 0.779 | 0.752 | 0.664 | 0.762
5 | LU99A | 0.298 | 0.332 | 0.295 | 0.293 | 0.218 | 0.205 | 0.248 | 0.225 | 0.243 | 0.254 | 0.935 | 0.896 | 1.07 | 0.913 | 0.85 | 0.429 | 0.336 | 0.4 | 0.234 | 0.273
6 | LXF-289 | 0.744 | 0.756 | 0.788 | 0.804 | 0.395 | 0.668 | 0.643 | 0.578 | 0.634 | 0.657 | 0.827 | 0.85 | 0.817 | 0.77 | 0.7 | 1.02 | 1.03 | 1.06 | 0.978 | 1.06
7 | NCI-H23 | 0.518 | 0.58 | 0.661 | 0.618 | 0.27 | 0.228 | 0.213 | 0.203 | 0.22 | 0.189 | 1.02 | 1.06 | 1.3 | 0.99 | 1.07 | 0.228 | 0.267 | 0.252 | 0.232 | 0.225
8 | NCI-H322M | 0.546 | 0.478 | 0.497 | 0.53 | 0.384 | 0.887 | 0.744 | 0.848 | 0.788 | 0.85 | 0.675 | 0.561 | 0.551 | 0.581 | 0.58 | 0.689 | 0.46 | 0.577 | 0.607 | 0.601
9 | NCI-H358 | 0.869 | 0.753 | 0.768 | 0.623 | 0.228 | 0.449 | 0.268 | 0.394 | 0.372 | 0.289 | 0.452 | 0.43 | 0.442 | 0.386 | 0.519 | – | 0.473 | 0.591 | 0.507 | 0.725
10 | NCI-H460 | 0.727 | 1 | 0.781 | 0.525 | 0.394 | 0.0344 | 0.0414 | 0.0281 | 0.0308 | 0.0303 | 1.02 | 1.05 | 1.6 | 1 | 1.23 | 0.73 | 0.655 | 0.593 | 0.53 | 0.621
11 | NCI-H596 | 0.749 | 0.542 | 0.875 | 0.677 | 0.532 | 1.07 | 1.01 | 0.95 | 0.795 | 0.768 | 1.16 | 0.937 | 0.974 | 0.824 | 0.496 | 1.1 | 0.993 | 0.893 | 0.911 | 0.799
12 | NCI-H647 | 0.531 | 0.84 | 0.633 | 0.532 | 0.515 | 0.138 | 0.107 | 0.157 | 0.184 | 0.176 | 1.03 | 1.11 | 1.21 | 0.949 | 1.06 | 0.642 | 0.489 | 0.497 | 0.326 | 0.373
13 | NCI-H650 | 0.519 | 0.601 | 0.621 | 0.495 | 0.269 | 0.803 | 0.913 | 0.784 | 0.84 | 0.98 | 0.809 | 0.906 | 0.837 | 0.841 | 0.597 | 0.877 | 0.934 | 0.941 | 0.875 | 1.04
14 | NCI-H727 | 0.624 | 0.598 | 0.686 | 0.575 | 0.343 | 0.365 | 0.467 | 0.367 | 0.345 | 0.314 | 1.05 | 0.799 | 1.22 | 0.789 | 0.648 | 0.996 | 0.693 | 0.574 | 0.468 | 0.486
